pEC50: −log10 of the molar value. Values joined by “and” are separate entries in the source; they are usually repeats but may differ in a detail not shown here. Identical values can stand only once. Like-named read-outs stand apart in the source and are kept apart here.

A word on the pEC50: it is the negative decadic logarithm of the EC50, by convention in mol/L.

For data set [1] the following is noted: amide bond, 13-membered ring.
In data set [2] the target is T1, CFTR (Homo sapiens, UniProt P13569). The data set is described as follows: Membrane Potential Dye, Enteroid Assay B. To be noted: for pEC50: read-out: Ent. B EC50. The data set is classed as cell-based. The essentials: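 Activity given as % of a triple-combination reference (1 μM and 3 μM correctors, 300 nM acute potentiator). Enteroids were preincubated 18-24 h with compound; chloride efflux then measured 15 min by methyl oxonol fluorescence after forskolin/IBMX/Compound III stimulation in chloride-free buffer containing CaCCinh-A01 and Chicago Sky Blue.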

The conditions of data set [3]: from Cc1cccc(C)c1-c1cc(OC[C@@H](CC(C)(C)C)NC2CC3(CC3)C2)nc(NS(=O)(=O)c2cccc(C(=O)O)c2)n1; amide bond; 13-membered ring; HATU/DIEA; DMF; 26.5 mM; 6.0 h.
Data set [4] has as its target T1, CFTR. The data set is described as follows: Membrane Potential Dye, Enteroid Assay A. In kind it is cell-based. The essentials:
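Primary human intestinal enteroid cells exposed to compound for 18–24 hours at 37 °C, then loaded 25 min with methyl oxonol membrane potential dye plus CaCC inhibitors. Chloride transport triggered in chloride-free buffer with 10 μM forskolin, 100 μM IBMX and 300 nM Compound III, fluorescence read 15 min; % Activity relative to a triple-combination corrector/potentiator control.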

T1 sequence (P13569 with tags, fused parts or gaps DEL508-508): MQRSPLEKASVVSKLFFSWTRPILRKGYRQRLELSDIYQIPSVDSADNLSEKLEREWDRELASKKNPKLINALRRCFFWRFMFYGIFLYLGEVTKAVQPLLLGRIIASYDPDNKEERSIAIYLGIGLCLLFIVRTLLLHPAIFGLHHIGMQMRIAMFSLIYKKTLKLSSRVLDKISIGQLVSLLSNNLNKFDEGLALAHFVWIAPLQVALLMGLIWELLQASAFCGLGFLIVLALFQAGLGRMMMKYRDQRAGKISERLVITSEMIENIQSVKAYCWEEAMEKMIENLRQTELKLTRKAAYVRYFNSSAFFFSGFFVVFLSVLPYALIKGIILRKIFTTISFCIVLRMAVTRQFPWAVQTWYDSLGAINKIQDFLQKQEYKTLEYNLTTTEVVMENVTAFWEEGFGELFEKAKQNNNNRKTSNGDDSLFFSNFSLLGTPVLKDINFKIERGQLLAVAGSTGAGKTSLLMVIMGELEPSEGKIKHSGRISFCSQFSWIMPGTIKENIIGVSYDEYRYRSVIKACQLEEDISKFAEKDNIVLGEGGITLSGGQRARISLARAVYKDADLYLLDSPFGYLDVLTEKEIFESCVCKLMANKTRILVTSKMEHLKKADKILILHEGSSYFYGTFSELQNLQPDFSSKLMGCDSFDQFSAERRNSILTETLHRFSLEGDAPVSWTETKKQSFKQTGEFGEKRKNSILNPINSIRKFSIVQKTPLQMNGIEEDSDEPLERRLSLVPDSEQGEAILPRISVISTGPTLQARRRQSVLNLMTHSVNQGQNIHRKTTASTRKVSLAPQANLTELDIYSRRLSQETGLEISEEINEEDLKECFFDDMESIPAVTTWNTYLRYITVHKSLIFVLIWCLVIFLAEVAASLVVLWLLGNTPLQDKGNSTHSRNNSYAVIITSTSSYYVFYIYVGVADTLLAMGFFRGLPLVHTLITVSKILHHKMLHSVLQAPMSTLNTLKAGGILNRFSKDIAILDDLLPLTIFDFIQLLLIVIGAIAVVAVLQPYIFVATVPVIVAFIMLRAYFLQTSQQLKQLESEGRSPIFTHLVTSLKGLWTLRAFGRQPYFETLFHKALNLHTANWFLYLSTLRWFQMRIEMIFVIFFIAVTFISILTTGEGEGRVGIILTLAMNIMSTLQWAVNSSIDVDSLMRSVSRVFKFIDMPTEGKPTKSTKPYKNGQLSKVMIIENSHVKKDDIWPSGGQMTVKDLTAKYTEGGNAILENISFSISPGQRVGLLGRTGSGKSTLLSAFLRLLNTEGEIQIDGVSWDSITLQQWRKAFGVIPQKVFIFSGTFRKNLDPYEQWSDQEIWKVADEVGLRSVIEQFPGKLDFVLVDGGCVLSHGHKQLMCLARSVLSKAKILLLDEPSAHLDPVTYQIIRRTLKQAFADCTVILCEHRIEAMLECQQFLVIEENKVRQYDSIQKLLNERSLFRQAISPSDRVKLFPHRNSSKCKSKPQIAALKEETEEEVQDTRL

In turn, `Cc1cccc(C)c1-c1cc2nc(n1)NS(=O)(=O)c1cccc(c1)C(=O)N(C1CC3(CCN(C(=O)OC(C)(C)C)CC3)C1)[C@H](CC1(C(F)(F)F)CC1)CO2` [Compound 127, tert-butyl 2-[(11R)-6-(2,6-dimethylphenyl)-2,2,13-trioxo-11-[[1-(trifluoromethyl)cyclopropyl]methyl]-9-oxa-2λ^6-thia-3,5,12,19-tetrazatricyclo[12.3.1.14,8]nonadeca-1(18),4(19),5,7,14,16-hexaen-12-yl]-7-azaspiro[3.5]nonane-7-carboxylate] displayed a ring closure, isolated yield in data set [1] (from Cc1cccc(C)c1-c1cc(OC[C@@H](CC2(C(F)(F)F)CC2)NC2CC3(CCN(C(=O)OC(C)(C)C)CC3)C2)nc(NS(=O)(=O)c2cccc(C(=O)O)c2)n1, HATU/DIEA, DMF, 65.3 mM, 16.0 h) of 59%. Further, on CFTR [2], the “Ent. B Max Activity (%)” value is recorded as “+++ (+++ is >60%)” and the pEC50 is greater than 6.00.
In data set [1] (from Cc1cccc(C)c1-c1cc(OC[C@@H](CC(C)C)NC2CCN(C(=O)OC(C)(C)C)C2)nc(NS(=O)(=O)c2cccc(C(=O)O)c2)n1, COMU/DIPEA, DMF, 10.0 mM, 16.0 h, 2 steps), `Cc1cccc(C)c1-c1cc2nc(n1)NS(=O)(=O)c1cccc(c1)C(=O)N(C1CCN(C(=O)OC(C)(C)C)C1)[C@H](CC(C)C)CO2` (stereo partly drawn) displayed a ring closure, isolated yield of 28%.
In the case of `Cc1cccc(C)c1-c1cc2nc(n1)NS(=O)(=O)c1cccc(c1)C(=O)N(C1[C@@H]3C[C@H]1CN(C(=O)OC(C)(C)C)C3)[C@H](CC(C)(C)C)CO2` (stereo partly drawn), the ring closure, isolated yield in data set [1] (from Cc1cccc(C)c1-c1cc(OC[C@@H](CC(C)(C)C)NC2C3CC2CN(C(=O)OC(C)(C)C)C3)nc(NS(=O)(=O)c2cccc(C(=O)O)c2)n1, COMU/DIEA, DMF, 8.4 mM, 25.0 °C, 24.0 h) is 17%.
In the case of `Cc1cccc(C)c1-c1cc2nc(n1)NS(=O)(=O)c1cccc(c1)C(=O)N(C1CC(OCc3ccccc3)C1)[C@H](CC(C)(C)C)CO2` (stereo partly drawn), in data set [1] (from Cc1cccc(C)c1-c1cc(OC[C@@H](CC(C)(C)C)NC2CC(OCc3ccccc3)C2)nc(NS(=O)(=O)c2cccc(C(=O)O)c2)n1, COMU/DIEA, DMF, 65.1 mM, 25.0 °C, 16.0 h), the ring closure, isolated yield is 82%.
For the compound `COC(=O)C1CC(N2C(=O)c3cccc(c3)S(=O)(=O)Nc3nc(cc(-c4c(C)cccc4C)n3)OC[C@H]2CC(C)(C)C)C1` (stereo partly drawn), the ring closure, isolated yield in data set [1] (from COC(=O)C1CC(N[C@@H](COc2cc(-c3c(C)cccc3C)nc(NS(=O)(=O)c3cccc(C(=O)O)c3)n2)CC(C)(C)C)C1, COMU/DIEA, DMF, 25.2 mM, 25.0 °C, 21.0 h) is 25% and 34%.
On to `COC(=O)C1CC2(C1)CC(N1C(=O)c3cccc(c3)S(=O)(=O)Nc3nc(cc(-c4c(C)cccc4C)n3)OC[C@H]1CCC(C)C)C2` (stereo partly drawn), for which, in data set [1] (HATU/DIEA, DMF, 25.0 °C, 2 steps), the ring closure, isolated yield came out at 20%.
In turn, `COC(=O)C1CC2(C1)CC(N1C(=O)c3cccc(c3)S(=O)(=O)Nc3nc(cc(-c4c(C)cccc4C)n3)OC[C@H]1CC(C)(C)C)C2` (stereo partly drawn) came in with a ring closure, isolated yield in data set [1] (from COC(=O)C1CC2(CC(N[C@@H](COc3cc(-c4c(C)cccc4C)nc(NS(=O)(=O)c4cccc(C(=O)O)c4)n3)CC(C)(C)C)C2)C1, COMU/DIEA, DMF, 16.0 h, 2 steps) of 51%.
In turn, `Cc1cccc(C)c1-c1cc2nc(n1)NS(=O)(=O)c1cccc(c1)C(=O)N(C1CC3(CCN(C(=O)OC(C)(C)C)C3)C1)[C@H](CC(C)C)CO2` (stereo partly drawn) registered a ring closure, isolated yield in data set [1] (from Cc1cccc(C)c1-c1cc(OC[C@@H](CC(C)C)NC2CC3(CCN(C(=O)OC(C)(C)C)C3)C2)nc(NS(=O)(=O)c2cccc(C(=O)O)c2)n1, HATU/DIEA, DMF, 25.0 °C, 3.0 h, 2 steps) of 67%.
Turning to `Cc1cccc(C)c1-c1cc2nc(n1)NS(=O)(=O)c1cccc(c1)C(=O)N(C1CC3(CC(NC(=O)OC(C)(C)C)C3)C1)[C@H](CC1(C(F)(F)F)CC1)CO2` (stereo partly drawn), the ring closure, isolated yield in data set [1] (from Cc1cccc(C)c1-c1cc(OC[C@@H](CC2(C(F)(F)F)CC2)NC2CC3(CC(NC(=O)OC(C)(C)C)C3)C2)nc(NS(=O)(=O)c2cccc(C(=O)O)c2)n1, HATU/DIEA, DMF, 99.2 mM, 18.0 h) stood at 74%.
In data set [1] (from Cc1cccc(C)c1-c1cc(OC[C@@H](CC(C)(C)C)NC2CC3(C2)CC2(C3)OCCO2)nc(NS(=O)(=O)c2cccc(C(=O)O)c2)n1, COMU/DIEA, DMF, 71.6 mM, 16.0 h), `Cc1cccc(C)c1-c1cc2nc(n1)NS(=O)(=O)c1cccc(c1)C(=O)N(C1CC3(C1)CC1(C3)OCCO1)[C@H](CC(C)(C)C)CO2` had a ring closure, isolated yield of 76%.
Turning to `Cc1cccc(C)c1-c1cc2nc(n1)NS(=O)(=O)c1cccc(c1)C(=O)N(C1CC3(COC(=O)N3)C1)[C@H](CC(C)(C)C)CO2` (stereo partly drawn), the ring closure, isolated yield in data set [1] (from Cc1cccc(C)c1-c1cc(OC[C@@H](CC(C)(C)C)NC2CC3(COC(=O)N3)C2)nc(NS(=O)(=O)c2cccc(C(=O)O)c2)n1, COMU/DIEA, DMF, 13.0 mM, 25.0 °C, 3.0 h, 2 steps) is 8% and 3%.
On to `COC(=O)CC1CC(N2C(=O)c3cccc(c3)S(=O)(=O)Nc3nc(cc(-c4c(C)cccc4C)n3)OC[C@H]2CC(C)(C)C)C1` (stereo partly drawn), for which the ring closure, isolated yield in data set [1] (from COC(=O)CC1CC(N[C@@H](COc2cc(-c3c(C)cccc3C)nc(NS(=O)(=O)c3cccc(C(=O)O)c3)n2)CC(C)(C)C)C1, COMU/DIEA, DMF, 47.0 mM, 18.0 h) was determined as 79%.
As to `Cc1cccc(C)c1-c1cc2nc(n1)NS(=O)(=O)c1cccc(c1)C(=O)N(C1CC3(C1)CN(C(=O)OC(C)(C)C)C3)[C@H](CC1(C(F)(F)F)CC1)CO2`, the ring closure, isolated yield in data set [1] (from Cc1cccc(C)c1-c1cc(OC[C@@H](CC2(C(F)(F)F)CC2)NC2CC3(C2)CN(C(=O)OC(C)(C)C)C3)nc(NS(=O)(=O)c2cccc(C(=O)O)c2)n1, HATU/TEA, DMF, 35.1 mM, 22.0 h) was found to be 49%.
Consider `Cc1cccc(C)c1-c1cc2nc(n1)NS(=O)(=O)c1cccc(c1)C(=O)N(C1CC(NC(=O)OC(C)(C)C)C1)[C@H](CC1(C(F)(F)F)CC1)CO2` (stereo partly drawn), for which the ring closure, isolated yield in data set [1] (from Cc1cccc(C)c1-c1cc(OC[C@@H](CC2(C(F)(F)F)CC2)NC2CC(NC(=O)OC(C)(C)C)C2)nc(NS(=O)(=O)c2cccc(C(=O)O)c2)n1, HATU/DIPEA, DMF, 28.6 mM, 16.0 h) was 61%.
Take `CC(C)C[C@@H]1COc2cc(Cl)nc(n2)NS(=O)(=O)c2cccc(c2)C(=O)N1C1CC2(CCN(C(=O)OC(C)(C)C)CC2)C1`: the ring closure, isolated yield in data set [1] (from CC(C)C[C@H](COc1cc(Cl)nc(NS(=O)(=O)c2cccc(C(=O)O)c2)n1)NC1CC2(CCN(C(=O)OC(C)(C)C)CC2)C1, HATU/TEA, DMF, 154.9 mM, 25.0 °C, 16.0 h) turned out to be 41%.
Turning to `Cc1cccc(C)c1-c1cc2nc(n1)NS(=O)(=O)c1cccc(c1)C(=O)N(C1CC(C(=O)OC(C)C)(C(=O)OC(C)C)C1)[C@H](CC(C)(C)C)CO2`, the ring closure, isolated yield in data set [1] (from Cc1cccc(C)c1-c1cc(OC[C@@H](CC(C)(C)C)NC2CC(C(=O)OC(C)C)(C(=O)OC(C)C)C2)nc(NS(=O)(=O)c2cccc(C(=O)O)c2)n1, COMU/DIEA, DMF, 18.6 mM, 25.0 °C, 21.0 h) was 20%.
In data set [1] (from Cc1cccc(C)c1-c1cc(OC[C@H](CC(C)C)NC2CC3(CCN(C(=O)OC(C)(C)C)CC3)C2)nc(NS(=O)(=O)c2cccc(C(=O)O)c2)n1, HATU/DIEA, DMF/THF, 16.0 h, 2 steps), `Cc1cccc(C)c1-c1cc2nc(n1)NS(=O)(=O)c1cccc(c1)C(=O)N(C1CC3(CCN(C(=O)OC(C)(C)C)CC3)C1)[C@@H](CC(C)C)CO2` showed a ring closure, isolated yield of 18%.
Regarding `Cc1cccc(C)c1-c1cc2nc(n1)NS(=O)(=O)c1cccc(c1)C(=O)N(C1CC(OCc3ccccc3)C1)[C@H](CC(C)C)CO2` (stereo partly drawn), the ring closure, isolated yield in data set [1] (from Cc1cccc(C)c1-c1cc(OC[C@@H](CC(C)C)NC2CC(OCc3ccccc3)C2)nc(NS(=O)(=O)c2cccc(C(=O)O)c2)n1, HATU/DIEA, DMF, 77.3 mM, 15.0 h) came to 85%.
In data set [1] (from Cc1cccc(C)c1-c1cc(O[C@H](C)CNC2CC3(CCN(C(=O)OC(C)(C)C)CC3)C2)nc(NS(=O)(=O)c2cccc(C(=O)O)c2)n1, HATU/DIEA, DMF, 8.8 mM, 6.0 h, 2 steps), `Cc1cccc(C)c1-c1cc2nc(n1)NS(=O)(=O)c1cccc(c1)C(=O)N(C1CC3(CCN(C(=O)OC(C)(C)C)CC3)C1)C[C@@H](C)O2` returned a ring closure, isolated yield of 28%.
Turning to `CC(C)C[C@@H]1COc2cc(Cl)nc(n2)NS(=O)(=O)c2cccc(c2)C(=O)N1C1CC2(CC2)C1`, the ring closure, isolated yield in data set [1] (from CC(C)C[C@H](COc1cc(Cl)nc(NS(=O)(=O)c2cccc(C(=O)O)c2)n1)NC1CC2(CC2)C1, HATU/DIEA, DMF, 16.5 mM, 17.0 h) stood at 58%.
Regarding `Cc1cccc(C)c1-c1cc2nc(n1)NS(=O)(=O)c1cccc(c1)C(=O)N(C1CC3(CC3)C1)[C@H](CC(C)(C)C)CO2` [Compound 182, (11R)-6-(2,6-Dimethylphenyl)-11-(2,2-dimethylpropyl)-2,2-dioxo-12-spiro[2.3]hexan-5-yl-9-oxa-2λ^6-thia-3,5,12,19-tetrazatricyclo[12.3.1.14,8]nonadeca-1(18),4(19),5,7,14,16-hexaen-13-one], the ring closure, yield after HPLC in data set [3] was 54%. Moreover, at CFTR [2], the “Ent. B Max Activity (%)” value is recorded as “+++ (+++ is >60%)” and the pEC50 is greater than 6.00. For the same compound, the “Ent. A Max Activity (%)” value on CFTR [4] is given as “+++ (+++ is >60%)”. Besides, on CFTR [4] (read-out: Ent. A EC50), the pEC50 is greater than 6.00.

The record behind these values is patent US20230382925A1, “MODULATORS OF CYSTIC FIBROSIS TRANSMEMBRANE CONDUCTANCE REGULATOR” (VERTEX PHARMACEUTICALS INCORPORATED, priority 2020, published 2023).
